The values that follow come from patent US20080226571A1, “Compositions and methods to effect enhanced photoprotection against UV A and UV B induced damage of human skin” (priority 2007, published 2008).

Marks after values point to notes of the source that are not given here.

Holding throughout (format): cell-based
For series [1], the system named is B16F1 mouse melanoma cells. In words: Intracellular melanin enhancement. The following applies: for Folds of Melanin Enhancement compared to control: Table E; for melanin enhancement activity, comparison in words: Tables C and E. The procedure: B16F1 mouse melanoma cells are treated with varying concentrations of actives I, II and III and other optional actives or combinations thereof at a time interval of 3 days for nine consecutive days. The intracellular melanin in both the controls and test B16F1 mouse melanoma cells is extracted by 1 N NaOH and subjected to a heat treatment at 100° C. The extracted melanin is estimated at 405 nm in a Fluostar Optima Microplate Reader.

Series [2] has as its system HaCaT human keratinocyte cell line. In words: UV A protection of HaCaT keratinocytes, topical application model (Protocol I, SRB viability). The following applies: for % UV A protection: Topical model. The procedure:
(§1) The protocol is based on evaluating the reduction in photo damage caused by UV A and UV B in HaCaT human keratinocyte cell line. The cell viability is measured by Sulphorhodamine B assay (SRB assay) after exposure to UV rays. The percentage of UV protection is calculated based on the number of viable cells in the control (untreated) and test HaCaT human keratinocytes (treated with the labdane-diterpenoids based composition of the present invention) after UV exposure. The photoprotection assays to screen compounds for their UV protection efficacy during topical and oral applications as discussed in J Am Acad Dermatol 2003; 49: 458-472 is adopted as a reference.
(§2) Protocol I—Screening compounds suited for topical applications for UV protection efficacy 0.5×10^4 HaCaT human keratinocyte cells/well are counted and seeded into a 96 well micro titer plates. The cells are incubated at 37° C. in 5% CO2 for 24 hours. The growth medium is then removed and replaced with medium containing varying concentrations of the labdane-diterpenoids based composition of the present invention. The cells are immediately exposed to ultraviolet irradiation and further incubated for 72 hours. After 72 hours, the cell viability is determined by SRB assay.
(§3) The UV A exposure in both the protocols involves three UV A bulbs providing 108 watts of power. The plates are exposed for 1 hour at a distance of 5 cm from the source of light. The UV B exposure in both the protocols involves three UV B bulbs which provide 100 μwatt/cm^2 or 0.14 J/cm^2 irradiation dose. The plates are exposed for 7 minutes at a distance of 30 cm from the source of light.

For series [3] the test system is unchanged. Briefly: UV B protection of HaCaT keratinocytes, oral application model (Protocol II). Here is the method:
as §1
(§4) Protocol II—Screening compounds suited for oral applications for UV protection efficacy 0.5×10^4 HaCaT human keratinocyte cells/well are counted and seeded into a 96 well micro titer plates. The cells are incubated at 37° C. in 5% CO2 for 24 hours. The growth medium is then removed and replaced with medium containing varying concentrations of the labdane-diterpenoids based composition of the present invention. The cells are then incubated for 24 hours to be followed by UV treatment. The UV treated cells are further incubated for 48 hours after which, cell viability is determined using the SRB or neutral red uptake assays.
as §3

For series [4] the test system is unchanged. Briefly: UV A protection of HaCaT keratinocytes, oral application model (Protocol II). Here is the method:
as §1, §4, §3

The test system is the same in series [5]. In words: UV B protection of HaCaT keratinocytes, topical application model (Protocol I, SRB viability). The following applies: for % UV B protection as compared to control: Table B, Topical model. Here is the method: as §1, §2, §3
[6] abbreviates: summary in words, Table I, HaCaT, topical and oral protocols not separated.

Take `C/C=C1\C(=O)C[C@H]2[C@@H]3CCC4=CC(=O)CC[C@]4(C)[C@H]3CC[C@]12C` [Gugulsterone, Guggulsterone]: the “Folds of Melanin Enhancement compared to control” value is recorded as 1.15 Folds in series [1] (0.25 μg/ml); 1.25 Folds in series [1] (0.5 μg/ml); 1.28 Folds in series [1] (1 μg/ml); 1.38 Folds in series [1] (2 μg/ml); 2.38* Folds in series [1] (3 μg/ml); 2.45* Folds in series [1] (5 μg/ml). For the same molecule, the “Folds of Melanin Enhancement compared to control” value in series [1] (12 μg/ml) was 2.5* Folds. In addition, in series [1], the “melanin enhancement activity, comparison in words” value (“melanin enhancement activity” for short) is on record as “comparable to active III but inferior to active I”.

For the molecule `O=C(CCCCc1ccc2c(c1)OCO2)N1CCCCC1` [tetrahydropiperine], in series [1] (Example 4), the toxicity to cells entry is “toxic to cells”. In series [1], the “melanin enhancement activity” value is listed as “does not show significant melanin enhancement activity”.

For the molecule `CC(C)=CCOc1c2occc2cc2ccc(=O)oc12` [Imperatorin], the “Folds of Melanin Enhancement compared to control” value in series [1] (0.25 μg/ml) is on record as 1.08 Folds; in series [1] (0.5 μg/ml), 1.25 Folds; in series [1] (1 μg/ml), 1.58* Folds; in series [1] (2 μg/ml), 1.78* Folds; in series [1] (3 μg/ml) it was 2.58* Folds; in series [1] (5 μg/ml), “toxic”. For the same molecule, the “Folds of Melanin Enhancement compared to control” value in series [1] (12 μg/ml) is “toxic”. The “melanin enhancement activity” value in series [1] is recorded as “comparable to active III but inferior to active I”.

As to `CC1(C)[C@@H](O[C@H]2O[C@H](C(=O)O)[C@@H](O)[C@H](O)[C@H]2O[C@@H]2O[C@H](C(=O)O)[C@@H](O)[C@H](O)[C@H]2O)CC[C@]2(C)[C@H]3C(=O)C=C4[C@@H]5C[C@@](C)(C(=O)O)CC[C@]5(C)CC[C@@]4(C)[C@]3(C)CC[C@@H]12` [Glycyrrhizin], the “Folds of Melanin Enhancement compared to control” value in series [1] (0.25 μg/ml) was 1.82* Folds; in series [1] (0.5 μg/ml) it was 2.25* Folds; in series [1] (1 μg/ml) it was 2.58* Folds; in series [1] (2 μg/ml), 2.76* Folds; in series [1] (3 μg/ml) it was 2.88* Folds; in series [1] (5 μg/ml), 2.92* Folds. Further, in series [1] (12 μg/ml), the “Folds of Melanin Enhancement compared to control” value is recorded as 2.95* Folds. The “melanin enhancement activity” value in series [1] is listed as “comparable to active III but inferior to active I”.

Regarding `C=C[C@@]1(C)CC(=O)[C@]2(O)[C@@]3(C)[C@@H](O)CCC(C)(C)[C@@H]3[C@H](OC(C)=O)[C@H](O)[C@@]2(C)O1` [Active II, 6β-acetoxy-8,13-epoxy-1α,7β,9α-trihydroxylabd-14-en-11-one], the “% UV A protection” value is on record as 10% in series [2] (0.25 μg/ml); 13% in series [2] (0.5 μg/ml); 18* % in series [2] (1 μg/ml); 25* % in series [2] (2 μg/ml); 35* % in series [2] (3 μg/ml); 45* % in series [2] (5 μg/ml). For the same molecule, the “% UV A protection” value in series [2] (12 μg/ml) was 50* %; in series [4] (0.25 μg/ml), 15* %; in series [4] (0.5 μg/ml), 25* %; in series [4] (1 μg/ml), 55* %; in series [4] (2 μg/ml) it was 75* %; in series [4] (3 μg/ml), 98* %. Moreover, the “% UV A protection” value is reported as 97* % in series [4] (5 μg/ml) and 98* % in series [4] (12 μg/ml). Also, the “UV protection UV A” value in series [2] (setting [6]) is recorded as “Moderate”. Moreover, the “% UV B protection” value is recorded as 10* % in series [3] (0.25 μg/ml); 15* % in series [3] (0.5 μg/ml); 18* % in series [3] (1 μg/ml); 23* % in series [3] (2 μg/ml); 30* % in series [3] (3 μg/ml); 35* % in series [3] (5 μg/ml). Besides, the “% UV B protection” value in series [3] (12 μg/ml) is reported as 40* %. In addition, the “% UV B protection as compared to control” value is 0% in series [5] (0.25 μg/ml); 0% in series [5] (0.5 μg/ml); 15* % in series [5] (1 μg/ml); 25* % in series [5] (2 μg/ml); 28* % in series [5] (3 μg/ml); 30* % in series [5] (5 μg/ml). In addition, the “% UV B protection as compared to control” value in series [5] (12 μg/ml) is given as 35* %. The “UV protection UV B” value in series [5] (setting [6]) was “Moderate”. For the same molecule, the “No. of folds of Melanin Enhancement compared to control” value was 1 folds in series [1] (0.25 μg/ml); 1.1 folds in series [1] (0.5 μg/ml); 1.6* folds in series [1] (1 μg/ml); 2.3* folds in series [1] (2 μg/ml); 3* folds in series [1] (3 μg/ml); 3.45* folds in series [1] (5 μg/ml). Besides, the “No. of folds of Melanin Enhancement compared to control” value in series [1] (12 μg/ml) is listed as 3.5* folds. For the same molecule, the “dose levels still tolerated and effective, relative to the maximum tolerated dose levels of active III” value in series [1] (mouse) stood at 2.4 times. In series [1] (summary in words, Table I), the Melanin enhancement entry is on record as “Moderate”.

Consider `COc1c2occc2cc2ccc(=O)oc12` [Active 8-MOP, 8-Methoxy psoralen], for which the “Folds of Melanin Enhancement compared to control” value is 1.12 Folds in series [1] (0.25 μg/ml); 1.25 Folds in series [1] (0.5 μg/ml); 1.4* Folds in series [1] (1 μg/ml); “toxic” in series [1] (2 μg/ml); “toxic” in series [1] (3 μg/ml); “toxic” in series [1] (5 μg/ml). Moreover, in series [1] (12 μg/ml), the “Folds of Melanin Enhancement compared to control” value was “toxic”. Besides, the “melanin enhancement activity” value in series [1] was “comparable to active III but inferior to active I”.

`C=C[C@@]1(C)CC(=O)[C@]2(O)[C@@]3(C)CCCC(C)(C)[C@@H]3[C@H](O)[C@H](OC(C)=O)[C@@]2(C)O1` [7β-Acetoxy-6β,9α-dihydroxy-8,13-epoxy-labd-14-en-11-one]: the “Folds of Melanin Enhancement compared to control” value in series [1] (0.25 μg/ml) is given as 1 Folds; in series [1] (0.5 μg/ml), 1.1 Folds; in series [1] (1 μg/ml), 1.5* Folds; in series [1] (2 μg/ml), 1.8* Folds; in series [1] (3 μg/ml) it was 2.2* Folds; in series [1] (5 μg/ml), 2.8* Folds. Besides, the “Folds of Melanin Enhancement compared to control” value in series [1] (12 μg/ml) is 3.2* Folds. Moreover, the “melanin enhancement activity” value in series [1] is listed as “comparable to that of active 3”.

On to `C=CC1(C)CC(=O)C2C3(C)CCCC(C)(C)C3C(O)C(OC(C)=O)C2(C)O1` (stereo not drawn) [7β-Acetoxy-6β-hydroxy-8,13-epoxy-labd-14-en-11-one], for which the “Folds of Melanin Enhancement compared to control” value was 1.1 Folds in series [1] (0.25 μg/ml); 1.13 Folds in series [1] (0.5 μg/ml); 1.4* Folds in series [1] (1 μg/ml); 2* Folds in series [1] (2 μg/ml); 2.1* Folds in series [1] (3 μg/ml); 2.2* Folds in series [1] (5 μg/ml). Moreover, the “Folds of Melanin Enhancement compared to control” value in series [1] (12 μg/ml) is 3* Folds. Besides, in series [1], the “melanin enhancement activity” value was “comparable to that of active 3”.

As to `COc1c2ccoc2cc2oc(=O)ccc12` [Active 5-MOP, 5-methoxy psoralen], the “Folds of Melanin Enhancement compared to control” value in series [1] (0.25 μg/ml) was 1.1 Folds; in series [1] (0.5 μg/ml), 1.15 Folds; in series [1] (1 μg/ml), 1.5* Folds; in series [1] (2 μg/ml), “toxic”; in series [1] (3 μg/ml) it was “toxic”; in series [1] (5 μg/ml) it was “toxic”. In addition, the “Folds of Melanin Enhancement compared to control” value in series [1] (12 μg/ml) is reported as “toxic”. Further, in series [1], the “melanin enhancement activity” value is on record as “comparable to active III but inferior to active I”.
